Like-named read-outs stand apart in the source and are kept apart here.
Experiments:
[1] = Metabolic stability in (human) liver microsomes; assay type: in vitro ADME; details: pH 7.4, test concentration 1 μM
Method: 3×NADPH stock solution (6 mM, 5 mg/mL) was prepared by dissolving NADPH in the buffer solution; 4. 30 μL of 1.5 μM additive solution containing 0.75 mg/mL microsomal solution was distributed to the plates designated for different time points (0, 5, 15, 30, 45 minutes); 5. at 0 min, 150 μL of ACN containing IS was added to the wells of the plate, followed by addition of 15 μL of NADPH stock solution (6 mM, step 3); 6. all other plates were pre-incubated at 37° C. for 5 minutes; 7. adding 15 μL of NADPH stock solution to the plate to start the reaction and timing; 8. 150 μL of ACN containing IS was added to the wells of the corresponding plates to stop the reaction at 5 min, 15 min, 30 min and 45 min, respectively; 9. after quenching, the plates were shaken on a shaker for 10 minutes (600 rpm/min) and then centrifuged at 6000 rpm for 15 minutes; 10. 80 μL of supernatant was transferred from each well to a 96-well sample plate containing 140 μL water for LC/MS analysis.
Detection method: LC-MS/MS-11 (8050), internal standard: tolbutamide; MS conditions: positive ion ESI for testosterone and test compound, and negative ion ESI for tolbutamide; Mobile phases: mobile phase A is 0.1% FA in water, and mobile phase B is 0.1% FA in ACN; Column and specification: ACQUITY UPLC HSS T3 1.8 um 2.1*50 mm.

Human GLP-1R = molecular target: T1, Human GLP-1R (Homo sapiens, UniProt P43220); test: GLP-1R agonistic activity assay (HTRF cAMP, 293A GFP-GLP-1R cells); assay type: cell-based; details: cAMP level, geometric mean
T1 construct: expressed in transfected cells
Source text: The method was a competitive immunoassay.

ICR mice [2] = test: Toxicological experiment in mice, 14-day repeated oral gavage (toxicokinetic study); assay type: in vivo, mouse; details: toxicokinetic study, male animals, 200 mg/kg oral once a day for 14 days
Method: (§1) Experimental method: 212 ICR mice (SPF grade), half male and half female. Animals in groups 1-5 were used for toxicity study, with 10 male and 10 female animals in each group; and animals in groups 6-9 were used for toxicokinetic study, with 14 male and 14 female animals in each group (2 of them were spare animals). […] Animals in Groups 1-9 were administered orally once a day for 14 consecutive days.

[3] = as above; assay type: in vivo, mouse; details: ICR, mouse, po, 200 mg/kg, Day 14; for AUC(0-t): plasma, read-out: AUC(0-t), the systemic exposure (first value listed)
Method: as §1

ICR mice [4] = test: Toxicological experiment in mice, 14-day repeated oral gavage (toxicity study); assay type: in vivo
Method: as §1

hERG potassium channels = molecular target: T2, hERG potassium channels (Homo sapiens, UniProt Q12809); test: Test for inhibition of hERG potassium channels (whole-cell patch clamp, HEK-293-hERG cells); assay type: cell-based
T2 construct: expressed in transfected cells; host or cells: HEK-293-hERG cells
Source text: Positive control: Amitriptyline hydrochloride or Terfenadine

T1 sequence (P43220 24-463): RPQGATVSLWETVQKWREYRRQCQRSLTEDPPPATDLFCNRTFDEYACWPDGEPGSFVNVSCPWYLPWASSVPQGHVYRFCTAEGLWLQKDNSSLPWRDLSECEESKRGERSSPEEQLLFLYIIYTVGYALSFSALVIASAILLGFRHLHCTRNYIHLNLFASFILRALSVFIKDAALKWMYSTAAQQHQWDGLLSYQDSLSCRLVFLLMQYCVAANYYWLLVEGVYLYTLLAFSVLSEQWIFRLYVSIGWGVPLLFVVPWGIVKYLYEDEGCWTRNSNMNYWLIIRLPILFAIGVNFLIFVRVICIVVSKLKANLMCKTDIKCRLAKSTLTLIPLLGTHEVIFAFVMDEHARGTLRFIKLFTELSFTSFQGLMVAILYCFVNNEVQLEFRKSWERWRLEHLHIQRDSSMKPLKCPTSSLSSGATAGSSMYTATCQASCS
T2 sequence (Q12809 whole entry): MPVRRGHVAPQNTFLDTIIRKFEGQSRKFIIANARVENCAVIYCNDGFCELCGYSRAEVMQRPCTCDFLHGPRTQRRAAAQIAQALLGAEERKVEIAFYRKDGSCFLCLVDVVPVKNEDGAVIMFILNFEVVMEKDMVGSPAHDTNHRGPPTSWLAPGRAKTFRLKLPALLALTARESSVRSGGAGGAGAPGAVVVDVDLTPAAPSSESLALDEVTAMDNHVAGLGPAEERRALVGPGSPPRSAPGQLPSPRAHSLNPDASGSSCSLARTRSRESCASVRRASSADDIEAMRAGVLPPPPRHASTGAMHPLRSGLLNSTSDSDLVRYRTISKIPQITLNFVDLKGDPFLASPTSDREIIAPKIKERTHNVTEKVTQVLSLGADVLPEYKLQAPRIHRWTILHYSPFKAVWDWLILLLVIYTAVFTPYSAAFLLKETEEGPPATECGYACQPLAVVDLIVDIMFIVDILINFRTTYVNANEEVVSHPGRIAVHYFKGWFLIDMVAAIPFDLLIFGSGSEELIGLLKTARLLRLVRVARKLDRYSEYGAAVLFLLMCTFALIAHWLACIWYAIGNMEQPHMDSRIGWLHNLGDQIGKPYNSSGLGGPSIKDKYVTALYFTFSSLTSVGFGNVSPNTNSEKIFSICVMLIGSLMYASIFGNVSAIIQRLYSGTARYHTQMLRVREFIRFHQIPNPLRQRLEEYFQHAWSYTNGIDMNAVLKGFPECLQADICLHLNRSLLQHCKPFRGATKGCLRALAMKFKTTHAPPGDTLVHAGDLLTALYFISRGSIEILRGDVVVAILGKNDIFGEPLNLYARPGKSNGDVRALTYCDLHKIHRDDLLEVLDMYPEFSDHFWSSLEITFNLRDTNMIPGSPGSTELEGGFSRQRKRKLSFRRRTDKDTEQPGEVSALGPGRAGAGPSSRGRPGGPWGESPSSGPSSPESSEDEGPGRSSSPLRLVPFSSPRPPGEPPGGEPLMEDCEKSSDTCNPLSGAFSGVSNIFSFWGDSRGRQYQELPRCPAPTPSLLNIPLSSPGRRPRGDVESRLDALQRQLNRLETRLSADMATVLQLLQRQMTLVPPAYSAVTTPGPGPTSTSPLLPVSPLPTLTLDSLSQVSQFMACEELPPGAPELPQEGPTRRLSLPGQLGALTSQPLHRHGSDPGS

half-life at 1 μM [1] [h]	EC50 (Human GLP-1R) [nM]	Compound	further results
1.2	0.1	O=C(O)c1ccc2nc(CN3CCC4c5nc(OCc6ccc(C7COC7)cc6F)ccc5COCC4C3)n(C[C@@H]3CCO3)c2c1 (single isomer, unassigned) [Compound 12-B]	
	0.14	O=C(O)c1ccc2nc(CN3CCC4c5nc(OCc6ccc(C7COC7)cc6Cl)ccc5COCC4C3)n(CC3CCO3)c2c1 (single isomer, unassigned) [Compound 17-B]	
2.06	0.07	O=C(O)c1ccc2nc(CN3CCC(c4cccc(OCc5ccc(C6COC6)cc5Cl)n4)CC3)n(C[C@@H]3CCO3)c2c1 [Compound 2, (S)-2-((4-(6-((2-chloro-4-(oxetan-3-yl)benzyl)oxy)pyridin-2-yl)piperidin-1-yl)methyl)-1-(oxetan-2-ylmethyl)-1H-benzo[d]imidazole-6-carboxylic acid]	
2.56	0.03	COc1cc(C2COC2)ccc1COc1cccc(C2CCN(Cc3nc4ccc(C(=O)O)cc4n3C[C@@H]3CCO3)CC2)n1 [Compound 3, (S)-2-((4-(6-((2-methoxy-4-(oxetan-3-yl)benzyl)oxy)pyridin-2-yl)piperidin-1-yl)methyl)-1-(oxetan-2-ylmethyl)-1H-benzo[d]imidazole-6-carboxylic acid]	
	0.08	N#CCC1(Cn2c(CN3CCC(c4cccc(OCc5ccc(C6COC6)cc5F)n4)CC3)nc3ccc(C(=O)O)cc32)CC1 [Compound 4, 1-((1-(cyanomethyl)cyclopropyl)methyl)-2-((4-(6-((2-fluoro-4-(oxetan-3-yl)benzyl)oxy)pyridin-2-yl)piperidin-1-yl)methyl)-1H-benzo[d]imidazole-6-carboxylic acid]	
	0.003	O=C(O)c1ccc2nc(CN3CCC(c4cccc(OCc5ccc(C6COC6)cc5F)n4)CC3)n(CC3(CF)CC3)c2c1 [Compound 5, 2-((4-(6-((2-fluoro-4-(oxetan-3-yl)benzyl)oxy)pyridin-2-yl)piperidin-1-yl)methyl)-1-((1-(fluoromethyl)cyclopropyl)methyl)-1H-benzo[d]imidazole-6-carboxylic acid]	
0.717	0.7	O=C(O)c1ccc2nc(CN3CCC(c4cccc(OCc5ccc(C6COC6)cn5)n4)CC3)n(C[C@@H]3CCO3)c2c1 [Compound 6, (S)-1-(oxetan-2-ylmethyl)-2-((4-(6-((5-(oxetan-3-yl)pyridin-2-yl)methoxy)pyridin-2-yl)piperidin-1-yl)methyl)-1H-benzo[d]imidazole-6-carboxylic acid]	
1.74	0.1	O=C(O)c1ccc2nc(CN3CCC4=C(COCc5ccc(OCc6ccc(C7COC7)cc6F)nc54)C3)n(C[C@@H]3CCO3)c2c1 [Compound 7, (S)-2-((2-((2-fluoro-4-(oxetan-3-yl)benzyl)oxy)-5,8,10,11-tetrahydro-oxepino[4,3-b: 6,5-c′]dipyridin-9(7H)-yl)methyl)-1-(oxetan-2-ylmethyl)-1H-benzo[d]imidazole-6-carboxylic acid]	
	0.02	N#CCC1(Cn2c(Cc3ccc(-c4cccc(OCc5ccc(C6COC6)cc5F)n4)cc3F)nc3ccc(C(=O)O)cc32)CC1 [Compound 8, 1-((1-(cyanomethyl)cyclopropyl)methyl)-2-(2-fluoro-4-(6-((2-fluoro-4-(oxetan-3-yl)benzyl)oxy)pyridin-2-yl)benzyl)-1H-benzo[d]imidazole-6-carboxylic acid]	
	0.39	O=C(O)c1ccc2nc(CN3CCC(c4cccc(OCc5ccc(C6COC6)cc5F)n4)CC3)n(CC3(F)CCC3)c2c1 [Compound 9, 2-((4-(6-((2-fluoro-4-(oxetan-3-yl)benzyl)oxy)pyridin-2-yl)piperidin-1-yl)methyl)-1-((1-fluorocyclobutyl)methyl)-1H-benzo[d]imidazole-6-carboxylic acid]	
	0.03	O=C(O)c1ccc2nc(Cc3ccc(-c4cccc(OCc5ccc(C6COC6)cc5F)n4)cc3F)n(CC3(CF)CC3)c2c1 [Compound 10, 2-(2-fluoro-4-(6-((2-fluoro-4-(oxetan-3-yl)benzyl)oxy)pyridin-2-yl)benzyl)-1-((1-(fluoromethyl)cyclopropyl)methyl)-1H-benzo[d]imidazole-6-carboxylic acid]	
1.05	0.011	O=C(O)c1ccc2nc(Cc3ccc(-c4cccc(OCc5ccc(C6COC6)cc5F)n4)cc3F)n(C[C@@H]3CCO3)c2c1 [Compound 11, (S)-2-(2-fluoro-4-(6-((2-fluoro-4-(oxetan-3-yl)benzyl)oxy)pyridin-2-yl)benzyl)-1-(oxetan-2-ylmethyl)-1H-benzo[d]imidazole-6-carboxylic acid]	
	0.08	O=C(O)c1ccc2nc(CN3CCC(c4cccc(OCc5ccc(C6(F)COC6)cc5F)n4)CC3)n(C[C@@H]3CCO3)c2c1 [Compound 15, (S)-2-((4-(6-((2-fluoro-4-(3-fluoroxetan-3-yl)benzyl)oxy)pyridin-2-yl)piperidin-1-yl)methyl)-1-(oxetan-2-ylmethyl)-1H-benzo[d]imidazole-6-carboxylic acid]	
	0.85	O=C(O)c1ccc2nc(CN3CCC(c4cccc(OCc5ccc(C6COC6)cc5C(F)F)n4)CC3)n(C[C@@H]3CCO3)c2c1 [Compound 18, (S)-2-((4-(6-((2-(difluoromethyl)-4-(oxetan-3-yl)benzyl)oxy)pyridin-2-yl)piperidin-1-yl)methyl)-1-(oxetan-2-ylmethyl)-1H-benzo[d]imidazole-6-carboxylic acid]	

Compound	half-life at 1 μM [1] [h]	EC50 (Human GLP-1R) [nM]	further results
N#Cc1ccc(COc2cccc(C3CCN(Cc4nc5ccc(C(=O)O)cc5n4C[C@@H]4CCO4)CC3)n2)c(F)c1 [Compound 20, 2-[(4-{6-[(4-cyano-2-fluorophenyl)methoxy]pyridin-2-yl}piperidin-1-yl)methyl]-1-{[(2S)-oxetan-2-yl]methyl}-1H-1,3-benzodiazole-6-carboxylic acid, reference compound]	1.87		animals found dead (ICR mice [2]): 4/14; AUC(0-inf) ([3]; plasma of female animals): 331 µg·h/mL; Cmax ([3]; plasma of female animals): 104 µg/mL; AUC(0-inf) ([3]; plasma of male animals): 254 µg·h/mL; Cmax ([3]; plasma of male animals): 91 µg/mL; AUC(0-t) ([3]; female, plasma of female animals): 338 µg·h/mL; AUC(0-t) ([3]; male, plasma of male animals): 387 µg·h/mL; non-toxic response dose level (ICR mice [4]; ICR mice, gavage once a day for 14 consecutive days): less than 200 mg/kg; biochemical analysis of serum (ICR mice [4]; compared to vehicle control): increase in TBIL; clinical observation (ICR mice [4]; toxicity and toxicokinetic studies, 200 mg/kg): decreased activity, piloerection, cold skin when touched, arched-back posture and prone position were frequently observed; animals found dead (ICR mice [4]; toxicity study, male animals, 200 mg/kg oral once a day for 14 days): 2/10; IC50 (hERG potassium channels): 5800 nM
